Values of other authors, collected in paper PMC3065555 (European journal of medicinal chemistry, 2011).

Molecular target: SERCA (Oryctolagus cuniculus, UniProt P04191)
Conditions: training set compounds previously characterized; ref [1], [6], [32]

SERCA, sequence (P04191 1-994 isoform P04191-2): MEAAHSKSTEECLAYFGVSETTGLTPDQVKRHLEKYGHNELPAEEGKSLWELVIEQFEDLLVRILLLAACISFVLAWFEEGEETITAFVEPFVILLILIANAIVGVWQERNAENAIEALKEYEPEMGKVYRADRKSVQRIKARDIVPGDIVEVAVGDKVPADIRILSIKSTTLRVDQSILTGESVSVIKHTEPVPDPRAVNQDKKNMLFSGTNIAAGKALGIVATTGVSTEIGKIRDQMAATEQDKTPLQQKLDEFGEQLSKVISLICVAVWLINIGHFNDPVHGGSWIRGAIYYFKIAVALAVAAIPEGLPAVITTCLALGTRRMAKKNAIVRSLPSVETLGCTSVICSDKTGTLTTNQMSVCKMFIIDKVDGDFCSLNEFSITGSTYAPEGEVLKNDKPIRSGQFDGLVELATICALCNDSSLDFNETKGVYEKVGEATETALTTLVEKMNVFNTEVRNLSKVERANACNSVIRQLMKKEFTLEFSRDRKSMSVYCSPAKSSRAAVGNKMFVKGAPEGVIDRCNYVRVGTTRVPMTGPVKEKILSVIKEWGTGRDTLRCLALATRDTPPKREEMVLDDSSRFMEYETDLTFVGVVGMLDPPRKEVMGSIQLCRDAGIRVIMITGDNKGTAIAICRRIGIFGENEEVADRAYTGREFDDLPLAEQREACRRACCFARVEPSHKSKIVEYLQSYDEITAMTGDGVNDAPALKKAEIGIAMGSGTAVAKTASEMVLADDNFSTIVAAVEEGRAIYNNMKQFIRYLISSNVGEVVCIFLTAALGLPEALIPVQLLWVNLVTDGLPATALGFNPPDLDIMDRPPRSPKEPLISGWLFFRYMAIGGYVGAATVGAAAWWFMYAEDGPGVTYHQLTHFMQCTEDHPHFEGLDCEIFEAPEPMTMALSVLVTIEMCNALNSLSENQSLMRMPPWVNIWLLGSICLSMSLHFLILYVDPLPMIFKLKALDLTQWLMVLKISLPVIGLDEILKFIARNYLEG

Row | IC50 | Structure (SMILES)
1 | inactive | CC(C)(C)c1ccc(C(C)(C)C)cc1 [1,4-di-tert-butylbenzene]
2 | 6.81 µM | CC(C)(C)c1ccc(C(C)(C)C)c(O)c1 [2,5-di-tert-butylphenol]
